Patent US5726179A, “Muscarinic agonists” (The University of Toledo, priority 1996, dated 1998)
Structures can show the parent of a compound that is named as a salt.

How the values were obtained:
experimental animals = settings: background, cited from earlier work; for reverse cognitive impairments in experimental animals: natural product agonist ligands
muscarinic receptors [1] = assay: PI cortex: agonist activity at muscarinic receptors in rat central nervous system; assay type: biochemical; settings: mean from one to three experiments, each in triplicate
M3 receptors = settings: background; cited from earlier work
M2 receptors = settings: background; cited from earlier work
muscarinic receptors [2] = assay: Binding affinity at muscarinic receptors in rat central nervous system, ligand [3H]-QNB; settings: rat CNS; mean from one to three experiments, each in triplicate
Excerpt: Data represent the mean from one
to three experiments, each performed in triplicate.

Molecule | PI cortex (at 100 μM) (muscarinic receptors [1]) | also measured
CC[C@@H]1C(=O)OC[C@@H]1Cc1cncn1C [pilocarpine] | – | reverse cognitive impairments in experimental animals (experimental animals): reverse cognitive impairments
O=C(OCC#Cc1ccccc1)C1CN=CNC1 (stereo not drawn) [CDD-0189-A] | 3 ± 8.2% | –
O[Si](CCCN1CCCCC1)(c1ccc(F)cc1)C1CCCCC1 (stereo not drawn) [p-F-hexahydrosiladifenidol] | – | selective antagonist for M3 receptors (M3 receptors): selective antagonists
CN1CCN(CC(=O)N2c3ccccc3C(=O)Nc3cccnc32)CC1 [pirenzepine] | – | produce memory impairments in experimental animals (experimental animals; M1 antagonist): produce memory impairments
C#C/C(C)=C\COC(=O)C1CN=CNC1 (stereo not drawn) [CDD-0162-A, (cis)-5-(3-Methyl-2-penten-4-ynyloxycarbonyl)-1,4,5,6-tetrahydropyrimidine HCl] | 50 ± 4.3% | –
CC#CCOC(=O)C1CN=CNC1.Cl (stereo not drawn) [CDD-0171-A, 5-(2-Butynyloxycarbonyl)-1,4,5,6-tetrahydropyrimidine HCl] | 140% | –
CCN(CC)CC1CCCCN1CC(=O)N1c2ccccc2C(=O)Nc2cccnc21 (stereo not drawn) [AF-DX 116] | – | selective antagonist for M2 receptors (M2 receptors): selective antagonists
COC(=O)C1=CCCN(C)C1 [arecoline] | – | reverse cognitive impairments in experimental animals (experimental animals): reverse cognitive impairments
C#C/C(C)=C/COC(=O)C1CN=CNC1 (stereo not drawn) [CDD-0161-A, (trans)-5-(3-Methyl-2-penten-4-ynyloxycarbonyl)-1,4,5,6-tetrahydropyrimidine HCl] | 35 ± 5.6% | –
C#CCCOC(=O)C1CN=CNC1 (stereo not drawn) [CDD-0195-A] | 100 ± 15% | –
5-(3-Methylpropynyloxycarbonyl)-1,4,5,6-tetrahydropyrimidine HCl [CDD-0177-A] | 22 ± 3% | IC50 (muscarinic receptors [2]): 45 µM
